From patent publication US20130052172A1, “METHODS FOR DIAGNOSING AND TREATING CARDIAC DEFECTS” (priority 2011, published 2013)

Columns and labels:
[1] = tested on: metabolites known to be modified by intestinal microbiota; experiment: Metabolomic mass spec analysis of blood metabolites; assay type: in vivo, rat; details: rats treated for 7 days
Text: In this example, methods for assaying metabolite levels using mass spectrometry are described. Each sample received was accessioned into the Metabolon Laboratory Information Management System (LIMS) and was assigned by the LIMS a unique identifier, which was associated with the original source identifier only. This identifier was used to track all sample handling, tasks, results etc. The samples (and all derived aliquots) were bar-coded and tracked by the LIMS system. All portions of any sample were automatically assigned their own unique identifiers by the LIMS when a new task was created; the relationship of these samples was also tracked. All samples were maintained at −80° C. until processed.
The sample preparation process was carried out using the automated MicroLab STAR® system from Hamilton Company. Recovery standards were added prior to the first step in the extraction process for Quality Control (QC) purposes. […]
The LC/MS portion of the platform was based on a Waters ACQUITY UPLC and a Thermo-Finnigan LTQ mass spectrometer, which consisted of an electrospray ionization (ESI) source and linear ion-trap (LIT) mass analyzer. […] One aliquot was analyzed using acidic positive ion optimized conditions and the other using basic negative ion optimized conditions in two independent injections using separate dedicated columns. […]

[2] = tested on: rats; experiment: Myocardial ischemia/reperfusion by the protocol of example 3 (model not given); assay type: in vivo, rat; details: antibiotics in drinking water
Text: In the following example, methods for assaying myocardial infarction in vitro and in vivo in rats as determined by ischemia/reperfusion studies are described.
An anesthetized rat model was used for in vivo ischemia/reperfusion studies using the general surgical protocol and determination of infarct size (IS) described in “K(ATP) opener-induced delayed cardioprotection: involvement of sarcolemmal and mitochondrial K(ATP) channels, free radicals and MEK½” (Gross, E. et al., J. Mol. Cell. Cardiol. 35, 985-992, 2003), the entirety of which is incorporated herein by reference. Briefly, following anesthesia, a tracheotomy for artificial ventilation was performed, with the left common carotid artery cannulated for blood pressure and heart rate measurements. A thoracotomy was performed at the fifth intercostal space, the pericardium was excised, and a silk ligature was placed distal to the left atrial appendage that spanned to the sternal portion of the left ventricle, which included the left anterior descending coronary artery. Occlusion of the area described [area at risk (AAR)] was created by placing ends of the ligature through a polypropylene tube and fixing the snare to the epicardial surface with a hemostat. After 30 min, the hemostat was released to reperfuse the AAR. Following 2 h of reperfusion, the ligature was again occluded, and the AAR was determined by patent-blue negative staining. The heart was then excised, cross-sectioned into 4 to 5 slices, and separated into normal zone and AAR. Pieces were incubated in 1% 2,3,5-triphenyltetrazolium chloride to determine IS. The heart was then incubated overnight in 10% formaldehyde, and infarcted tissue was dissected from the AAR. IS was expressed as a percentage of the AAR (IS/AAR). Leptin (0.12 μg/kg) was administered intravenously as a bolus at 24 and 12 h before ischemia. Amino acids were administered intravenously as a bolus at 24 and 12 hours before ischemia or dissolved in the drinking water and given 48 hours before ischemia.
For in vitro ischemia/reperfusion studies, hearts were perfused retrogradely, as described previously in Baker, J. et al. (Am. J. Physiol. Heart Circ. Physiol., 2000), the entirety of which is incorporated herein by reference. Briefly, hearts were perfused with modified Krebs-Henseleit buffer (120 mM NaCl, 25 mM NaHCO3, 4.7 mM KCl, 1.2 mM KH2PO4, 1.20 mM MgSO4, 11 mM glucose, and 1.8 mM CaCl2) bubbled with 95% O2-5% CO2 for a 40-minute stabilization period and subjected to 25 minutes of global no-flow ischemia, followed by 180 minutes of reperfusion. Before use, all perfusion fluids were filtered through cellulose acetate membranes with a pore size of 5.0 μm to remove particulate matter. Hearts were kept in temperature-controlled chambers to maintain myocardial temperature at 37° C. A balloon connected to a pressure transducer was inserted into the left ventricle to monitor cardiac function. For some experiments, hearts were stabilized for 25 minutes and then perfused with vancomycin or a mixture of antibiotics for 15 minutes before ischemia/reperfusion. During the initial 40 minute reperfusion period, recovery of mechanical function was measured as left ventricular developed pressure (LVDP) under steady-state conditions and expressed as a percentage of preischemic LVDP. At the end of the 3 hour reperfusion period, hearts were processed and stained with 2,3,5-triphenyltetrazolium chloride dye for IS determination.

CN[C@H](CC(C)C)C(=O)N[C@H]1C(=O)N[C@@H](CC(N)=O)C(=O)N[C@H]2C(=O)N[C@H]3C(=O)N[C@H](C(=O)N[C@H](C(=O)O)c4cc(O)cc(O)c4-c4cc3ccc4O)[C@H](O)c3ccc(c(Cl)c3)Oc3cc2cc(c3O[C@@H]2O[C@H](CO)[C@@H](O)[C@H](O)[C@H]2O[C@H]2C[C@](C)(N)[C@H](O)[C@H](C)O2)Oc2ccc(cc2Cl)[C@H]1O [vancomycin, Vancomycin]
metabolites of tryptophan, phenylalanine and tyrosine in blood [1]: decreased metabolites known to be modified by intestinal microbiota
phenyllactate in blood [1]: increased
response of susceptibility to ischemia/reperfusion injury ([2]; Dahl S rats): sensitive
response of susceptibility to ischemia/reperfusion injury ([2]; Sprague Dawley rats): intermediate response
response of susceptibility to ischemia/reperfusion injury ([2]; WAG/RijCmcr rats): resistant
